Reference: patent US20070219161A1, “Preparation Process Of Oligoglycosaminoglycan, And Reducing End Glucuronic Acid Type Oligochondroitin Sulfate And Pharmaceutical Composition Comprising The Same” (priority 2004, published 2007)

Target: T1, CD44 (Homo sapiens, UniProt P16070)
T1 construct: endogenous in cells
Experiment: CD44 shedding induction by synthetic oligosaccharide in a cancer cell
Format: cell-based
Conditions: electrophoresis (FIG. 9) and CD44 shedding index with the state without stimulation set to 1 (FIG. 10)
Protocol: FIG. 8 is a flowchart showing the outline of the test method performed in Example 4.
FIG. 9 is a copy of the electrophoresis photograph in which the electrophoresis result of the test performed in Example 4 is shown.
About the compound of the formula (20) and (21) obtained in Example 1, a CD44 shedding induction ability in a cancer cell was evaluated according to the test method shown in FIG. 8.

T1 sequence (P16070 21-742, species assumed): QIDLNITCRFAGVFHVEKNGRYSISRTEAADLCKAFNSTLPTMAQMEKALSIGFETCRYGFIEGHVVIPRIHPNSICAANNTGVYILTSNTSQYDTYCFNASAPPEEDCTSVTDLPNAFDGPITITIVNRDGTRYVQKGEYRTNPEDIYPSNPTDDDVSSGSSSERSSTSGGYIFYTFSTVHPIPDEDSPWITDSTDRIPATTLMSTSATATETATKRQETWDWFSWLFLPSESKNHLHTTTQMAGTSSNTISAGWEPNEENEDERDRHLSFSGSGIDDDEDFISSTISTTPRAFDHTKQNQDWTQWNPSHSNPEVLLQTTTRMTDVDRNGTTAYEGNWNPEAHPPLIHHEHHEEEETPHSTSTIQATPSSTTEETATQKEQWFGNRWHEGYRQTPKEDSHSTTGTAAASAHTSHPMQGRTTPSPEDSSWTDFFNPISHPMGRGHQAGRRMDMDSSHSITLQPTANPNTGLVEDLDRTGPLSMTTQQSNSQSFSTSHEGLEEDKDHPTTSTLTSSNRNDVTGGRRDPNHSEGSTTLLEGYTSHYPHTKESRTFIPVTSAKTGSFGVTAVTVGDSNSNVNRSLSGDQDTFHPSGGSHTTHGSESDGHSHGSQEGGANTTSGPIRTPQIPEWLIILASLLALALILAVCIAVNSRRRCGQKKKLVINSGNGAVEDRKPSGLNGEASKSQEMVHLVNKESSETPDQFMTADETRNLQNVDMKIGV

## β-D-GalNAc-(1->[4]-β-D-GlcA-(1->3)-β-D-GalNAc-(1->)24)-β-D-GlcA-(1->OMP [compound of the formula (20)]
  CD44 shedding induction ability: induced the shedding of a CD44

## β-D-GalNAc(4,6-di-OSO3Na)-(1->[4]-β-D-GlcA-(1->3)-β-D-GalNAc(4,6-di-OSO3Na)-(1->24)-β-D-GlcA-(1->OMP [compound of the formula (21)]
  CD44 shedding induction ability: induced more strongly
